Data published in publication PMC10817945, “Design of a novel analogue peptide with potent antibiofilm activities against Staphylococcus aureus based upon a sapecin B-derived peptide” (Scientific Reports, 2024).
In brackets after ≈: the same amount, converted by molar mass. Read-outs that look alike come from different tables or passages of the source. Non-standard residues stand in square brackets, D forms with d. Residues, ends and D or L forms follow the SMILES beside them.

What was measured:
S. aureus strains = type: cell-based, Staphylococcus aureus; settings: for inhibition of biofilm formation: strains, 24 h
Description: To investigate the inhibitory effect of KLK and mKLK peptides on bacterial surface attachment and biofilm formation, the bacterial suspension in TSB with a concentration of 10^7 CFU/ml was prepared from overnight culture. An aliquot of 100 μl of the bacterial suspension was added to wells of 96-well plates containing 100 μl of the peptides solution with concentrations of 1×, 1/2× and 1/4× MIC, resulting in the final peptides concentrations of 1/2×, 1/4× and 1/8× MIC. To investigate the inhibitory effect of the peptides on surface attachment the incubation was performed at 37 °C for 2 h and to evaluate their inhibitory activity on biofilm formation the incubation was performed at 37 °C for 24 h. The wells containing only TSB medium were used as negative controls. After incubation, the contents of the wells were removed and washed three times with PBS and the wells were stained with 200 μl of 0.1% crystal violet for 20 min. The plates were washed again and excess dye was removed. A volume of 200 μl of 95% ethanol was added to each well for 20 min and absorbance was measured at 570 nm by a microplate reader.

in vitro = settings: human
Description: To quantitatively investigate the cytotoxicity of mKLK and KLK peptides, the 2,3-bis-(2-methoxy-4-nitro-5-sulfophenyl)-2H-tetrazolium-5-carboxanilide (XTT) (cell proliferation kit II, Roche, Germany) assay was performed on human embryonic kidney (HEK)-293 cell line, as described previously[47], The HEK-293 cells were grown in DMEM supplemented with 4 µM glutamine, 10% fetal bovine serum (FBS), and 100 units/ml penicillin/streptomycin at 37 °C in a 5% CO2 and 95% air atmosphere. Following incubation for 24 h, the culture medium was discarded and fresh medium containing different concentrations of KLK and mKLK peptides (1.56, 3.12, 6.25, 12.5, and 25 µM) was added and incubated at 37 °C for 20 min. Then, the culture medium was discarded and 100 µl of XTT reagent mixture was added and incubated for 4 h. Finally, the absorbance was measured at 570 nm using an ELISA plate reader (Anthos 2020, England). The percentage of cell inhibition was calculated using the following formula: % Cell inhibition = Test Abs/Control Abs × 100.

S. aureus = tested on: S. aureus; parameters: method as in ref 17 (Manabe et al.); settings: ref 17 (Manabe et al.); cited from earlier work
[1] = tested on: clinical Salmonella isolates; parameters: method as in PMID 34361810; settings: cited from earlier work
24-h S. aureus biofilms = assay: Biofilm dispersal activity (crystal violet); type: cell-based, Staphylococcus aureus
Description: To investigate the dispersal activity of KLK and mKLK peptide, the 24-h S. aureus biofilms were prepared in TSB medium in the 96-well plates. Then, the final concentrations of 1×, 2×, and 4 × MIC were prepared for each peptide in the wells. After incubation at 37 °C for 12 h, plates were washed with PBS three times to discard unattached bacteria. Subsequently, plates were stained with 250 μl of 0.5% crystal violet for 20 min at room temperature. Then, the wells were washed and 250 μl 33% acetic acid was added to them. Finally, the absorbance was measured at 570 nm using a microplate reader.

CC(C)C[C@@H](NC(=O)[C@H](N)CCCCN)C(=O)N[C@H](CCCCN)C(=O)N[C@H](CC(C)C)C(=O)N[C@H](CC(C)C)C(=O)N[C@H](CC(C)C)C(=O)N[C@H](CC(C)C)C(=O)N[C@H](CC(C)C)C(=O)N[C@H](CCCCN)C(=O)N[C@H](CC(C)C)C(=O)N[C@H](CCCCN)C(N)=O [KLK] (H-[dK][dL][dK][dL][dL][dL][dL][dL][dK][dL][dK]-NH2; N-terminus assumed)
crystal violet absorbance at 570 nm, biofilm formation, Mean±SD (S. aureus strains; ATCC25923, 1/2MIC, control 2.302±0.006): 1.654±0.006
crystal violet absorbance at 570 nm, biofilm formation, Mean±SD (S. aureus strains; ATCC25923, 1/4MIC, control 2.302±0.006): 2.069±0.04
crystal violet absorbance at 570 nm, biofilm formation, Mean±SD (S. aureus strains; ATCC25923, 1/8MIC, control 2.302±0.006): 2.113±0.01
crystal violet absorbance at 570 nm, biofilm formation, Mean±SD (S. aureus strains; MRSA-1, 1/2MIC, control 2.115±0.01): 1.606±0.01
crystal violet absorbance at 570 nm, biofilm formation, Mean±SD (S. aureus strains; MRSA-1, 1/4MIC, control 2.115±0.01): 1.924±0.004
crystal violet absorbance at 570 nm, biofilm formation, Mean±SD (S. aureus strains; MRSA-1, 1/8MIC, control 2.115±0.01): 1.947±0.05
crystal violet absorbance at 570 nm, biofilm formation, Mean±SD (S. aureus strains; MRSA-2, 1/2MIC, control 2.354±0.04): 1.861±0.007
crystal violet absorbance at 570 nm, biofilm formation, Mean±SD (S. aureus strains; MRSA-2, 1/4MIC, control 2.354±0.04): 2.128±0.01
crystal violet absorbance at 570 nm, biofilm formation, Mean±SD (S. aureus strains; MRSA-2, 1/8MIC, control 2.354±0.04): 2.187±0.002
crystal violet absorbance at 570 nm, biofilm formation, Mean±SD (S. aureus strains; MRSA-3, 1/2MIC, control 1.541±0.02): 0.204±0.03
crystal violet absorbance at 570 nm, biofilm formation, Mean±SD (S. aureus strains; MRSA-3, 1/4MIC, control 1.541±0.02): 1.739±0.002
crystal violet absorbance at 570 nm, biofilm formation, Mean±SD (S. aureus strains; MRSA-3, 1/8MIC, control 1.541±0.02): 1.441±0.04
crystal violet absorbance at 570 nm, biofilm formation, Mean±SD (S. aureus strains; MSSA-1, 1/2MIC, control 2.190±0.01): 1.609±0.03
crystal violet absorbance at 570 nm, biofilm formation, Mean±SD (S. aureus strains; MSSA-1, 1/4MIC, control 2.190±0.01): 1.971±0.10
crystal violet absorbance at 570 nm, biofilm formation, Mean±SD (S. aureus strains; MSSA-1, 1/8MIC, control 2.190±0.01): 2.007±0.13
crystal violet absorbance at 570 nm, biofilm formation, Mean±SD (S. aureus strains; MSSA-2, 1/2MIC, control 1.802±0.02): 1.261±0.01
crystal violet absorbance at 570 nm, biofilm formation, Mean±SD (S. aureus strains; MSSA-2, 1/4MIC, control 1.802±0.02): 1.627±0.01
crystal violet absorbance at 570 nm, biofilm formation, Mean±SD (S. aureus strains; MSSA-2, 1/8MIC, control 1.802±0.02): 1.633±0.04
inhibition of biofilm formation (S. aureus strains; 2): 48-66%
inhibition of biofilm formation (S. aureus strains; 4): 9-11%
inhibition of biofilm formation (S. aureus strains; 8): 6-9%
IC50 at 20 min (in vitro): 28.8 µM
MIC (S. aureus): 4 µg/mL (≈ 3.03 µM)
MIC [1]: > 256 µM
crystal violet absorbance at 570 nm, dispersal activity, Mean±SD (24-h S. aureus biofilms; ATCC25923, 1MIC, control 2.79±0.03): 2.451±0.007
crystal violet absorbance at 570 nm, dispersal activity, Mean±SD (24-h S. aureus biofilms; ATCC25923, 2MIC, control 2.79±0.03): 2.322±0.02
crystal violet absorbance at 570 nm, dispersal activity, Mean±SD (24-h S. aureus biofilms; ATCC25923, 4MIC, control 2.79±0.03): 2.017±0.01
crystal violet absorbance at 570 nm, dispersal activity, Mean±SD (24-h S. aureus biofilms; MRSA-1, 1MIC, control 1.903±0.003): 1.695±0.05
crystal violet absorbance at 570 nm, dispersal activity, Mean±SD (24-h S. aureus biofilms; MRSA-1, 2MIC, control 1.903±0.003): 1.649±0.06
crystal violet absorbance at 570 nm, dispersal activity, Mean±SD (24-h S. aureus biofilms; MRSA-1, 4MIC, control 1.903±0.003): 1.426±0.01
crystal violet absorbance at 570 nm, dispersal activity, Mean±SD (24-h S. aureus biofilms; MRSA-2, 1MIC, control 2.014±0.01): 1.804±0.006
crystal violet absorbance at 570 nm, dispersal activity, Mean±SD (24-h S. aureus biofilms; MRSA-2, 2MIC, control 2.014±0.01): 1.71±0.01
crystal violet absorbance at 570 nm, dispersal activity, Mean±SD (24-h S. aureus biofilms; MRSA-2, 4MIC, control 2.014±0.01): 1.643±0.01
crystal violet absorbance at 570 nm, dispersal activity, Mean±SD (24-h S. aureus biofilms; MRSA-3, 2MIC, control 1.255±0.29): 1.1±0.09
crystal violet absorbance at 570 nm, dispersal activity, Mean±SD (24-h S. aureus biofilms; MRSA-3, 4MIC, control 1.255±0.29): 0.996±0.04
crystal violet absorbance at 570 nm, dispersal activity, Mean±SD (24-h S. aureus biofilms; MSSA-1, 1MIC, control 1.787±0.1): 1.589±0.01
crystal violet absorbance at 570 nm, dispersal activity, Mean±SD (24-h S. aureus biofilms; MSSA-1, 2MIC, control 1.787±0.1): 1.483±0.01
crystal violet absorbance at 570 nm, dispersal activity, Mean±SD (24-h S. aureus biofilms; MSSA-1, 4MIC, control 1.787±0.1): 1.348±0.01
crystal violet absorbance at 570 nm, dispersal activity, Mean±SD (24-h S. aureus biofilms; MSSA-2, 1MIC, control 2.116±0.006): 1.858±0.12
crystal violet absorbance at 570 nm, dispersal activity, Mean±SD (24-h S. aureus biofilms; MSSA-2, 2MIC, control 2.116±0.006): 1.713±0.06
crystal violet absorbance at 570 nm, dispersal activity, Mean±SD (24-h S. aureus biofilms; MSSA-2, 4MIC, control 2.116±0.006): 1.52±0.001
